From ChEMBL document CHEMBL1914399 (Bioorg Med Chem Lett, 2011)

Assay: Apparent permeability across apical to basolateral side of dog MDCK cells at 50 uM measured every 15 mins for 1.5 hrs by LC-MS/MS analysis
Assay type: ADME, cell-based, Canis lupus familiaris

COCCc1ccc(OCC(O)CNC(C)C)cc1 (stereo unspecified) [METOPROLOL]
Papp A→B at 1.5 h, 50 µM: 15.6 ×10⁻⁶ cm/s
